Measured values as given in US6048865A, “N^6 -substituted-adenosine-5'-uronamides as adenosine receptor modulator” (priority 1998, dated 2000).
“Also recorded” adds a separate entry of the source. Like-named read-outs stand apart in the source and are kept apart here.

How the values were obtained:
[1] = molecular target: T1, rat brain A2A adenosine receptor (Rattus norvegicus, UniProt P30543); assay: Displacement of specific [3H]CGS 21680 binding in rat striatal membranes
T1 construct: A2A receptors for rat striatal membranes; from tissue; host or cells: rat striatal membranes
T1 sequence (P30543 whole entry): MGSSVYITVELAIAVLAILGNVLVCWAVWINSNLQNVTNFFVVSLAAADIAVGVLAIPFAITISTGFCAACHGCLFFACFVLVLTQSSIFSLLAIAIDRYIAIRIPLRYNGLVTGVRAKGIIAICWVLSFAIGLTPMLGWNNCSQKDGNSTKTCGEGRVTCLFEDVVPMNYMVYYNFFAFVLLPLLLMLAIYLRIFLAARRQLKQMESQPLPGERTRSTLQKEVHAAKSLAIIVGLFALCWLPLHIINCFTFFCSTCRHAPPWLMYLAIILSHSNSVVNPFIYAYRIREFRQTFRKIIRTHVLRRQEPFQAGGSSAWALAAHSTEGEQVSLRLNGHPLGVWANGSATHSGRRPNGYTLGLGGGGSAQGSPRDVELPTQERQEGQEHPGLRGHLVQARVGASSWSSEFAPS
Protocol: For binding experients, membrane homogenates were frozen and stored at -20° C. for greater than 2 months. Adenosine deaminase (ADA) was purchased from Boehringer Mannheim (Indianapolis, Ind.).
(§1) Nonspecific binding was determined in the presence of 200 μM NECA. […] Additional deaminase was not added during incubation with the radioligand.

[2] = molecular target: T2, rat brain A1 adenosine receptor (Rattus norvegicus, UniProt P25099); assay: Displacement of specific [3H]R-PIA binding in rat brain (cortical) membranes; settings: read-out: Ki (A1)
T2 sequence (P25099 1-326): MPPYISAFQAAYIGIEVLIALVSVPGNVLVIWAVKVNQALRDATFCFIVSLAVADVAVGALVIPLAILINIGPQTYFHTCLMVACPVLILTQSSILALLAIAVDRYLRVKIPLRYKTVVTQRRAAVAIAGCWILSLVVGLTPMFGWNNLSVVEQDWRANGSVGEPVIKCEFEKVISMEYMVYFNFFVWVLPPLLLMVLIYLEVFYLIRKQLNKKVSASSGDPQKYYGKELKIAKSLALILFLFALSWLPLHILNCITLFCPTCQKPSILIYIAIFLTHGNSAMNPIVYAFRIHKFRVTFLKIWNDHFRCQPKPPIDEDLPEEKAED
Protocol: (§2) Procedures for preparing rat brain membranes and Chinese hamster ovary (CHO) cell membranes were as reported^30, 38, 44. For binding experients, membrane homogenates were frozen and stored at -20° C. for greater than 2 months.
as §1

[3] = molecular target: T2, rat brain A1 adenosine receptor
Protocol: as §2, §1

[4] = molecular target: T3, rat A3 adenosine receptor (Rattus norvegicus, UniProt P28647);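 also: radioligand binding on membrane homogenates, 1 h incubation at 37 °C in duplicate, gamma counting of filter-bound radioactivity, nonspecific binding defined using 200 µM NECA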
T3 sequence (P28647 1-320): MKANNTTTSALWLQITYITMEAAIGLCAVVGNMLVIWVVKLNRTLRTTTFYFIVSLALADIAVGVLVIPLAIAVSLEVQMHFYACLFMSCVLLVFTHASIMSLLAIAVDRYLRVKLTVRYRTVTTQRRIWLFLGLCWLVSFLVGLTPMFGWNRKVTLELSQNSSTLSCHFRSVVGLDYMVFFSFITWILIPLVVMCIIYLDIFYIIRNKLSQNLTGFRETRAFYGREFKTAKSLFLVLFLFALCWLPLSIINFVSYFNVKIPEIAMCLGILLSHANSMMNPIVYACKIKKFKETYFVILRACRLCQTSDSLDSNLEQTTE
Protocol: (§3) Procedures for preparing rat brain membranes and Chinese hamster ovary (CHO) cell membranes were as reported^30, 38, 44. For binding experients, membrane homogenates were frozen and stored at -20° C. for greater than 2 months. Adenosine deaminase (ADA) was purchased from Boehringer Mannheim (Indianapolis, Ind.).
(§4) Inhibitors were routinely dissolved in DMSO. […] Incubations were carried out in duplicate for 1 h at 37° C., and were terminated by rapid filtration over Whatman GF/B filters using a Brandell cell harvester (Brandell, Gaithersburg, Md.). Tubes were washed three times with 3 mL of buffer. Radioactivity was determined in a Beckman gamma 5500B γ-counter.
as §1

[5] = molecular target: T3, rat A3 adenosine receptor; settings: for A1/A3: ratio of Ki (A1) to Ki (A3); for A1/A3 / A2A/A3: rat; for A2A/A3: ratio of Ki (A2A) to Ki (A3); for affinity and selectivity at A3 adenosine receptors: vs. A1 and A2 receptors
Protocol: as §3, §4, §1

[6] = molecular target: T2, rat brain A1 adenosine receptor; assay: biochemical
Protocol: as §2, §1

A3 receptor = settings: background, cited from earlier work
[7] = molecular target: T4, human A3 adenosine receptor (Homo sapiens, UniProt P0DMS8); assay: Binding of [125I]-AB-MECA to HEK-293 cells stably expressing the human A3 receptor; settings: read-out: affinity at human A3 adenosine receptors
T4 construct: expressed in transfected cells; host or cells: HEK-293 cells
T4 sequence (P0DMS8 1-318): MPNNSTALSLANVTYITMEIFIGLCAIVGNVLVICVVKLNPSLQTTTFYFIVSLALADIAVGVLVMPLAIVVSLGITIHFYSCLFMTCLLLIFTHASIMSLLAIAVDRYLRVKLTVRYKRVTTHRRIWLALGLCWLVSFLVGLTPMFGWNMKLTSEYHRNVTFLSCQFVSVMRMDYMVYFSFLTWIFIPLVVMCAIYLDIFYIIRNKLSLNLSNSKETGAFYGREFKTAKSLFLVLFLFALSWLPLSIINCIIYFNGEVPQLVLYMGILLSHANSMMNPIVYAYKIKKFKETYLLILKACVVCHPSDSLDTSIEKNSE
Description: Inhibitors were routinely dissolved in DMSO.

rat A3 receptor = molecular target: T5, rat A3 receptor (Rattus norvegicus, UniProt P28647); assay: Binding of [35S]GTP-γ-S to rat RBL-2H3 mast cell membranes; format: biochemical; settings: for effect on binding of [35S]GTP-γ-S: FIG. 1, rat RBL-2H3 mast cell membranes
T5 sequence (P28647 1-320): T3 sequence (P28647 1-320)
Protocol: The binding for [^35 S]GTP-y-S (Ameersham, Chicago Ill., specific activity 1275 Ci/mmol) was carried out using rat RBL-2H3 mast cell membranes by the general method of Lorenzen et al.^47 Membranes were suspended in a buffer containing 50 mM Tris, 3 units/mL adenosine deaminase, 100 mM NaCl, and 10 mM MgCl2 (pH 7.4) and a protein concentration of 1 to 10 μg per tube. The membrane suspension was preincubated with […], R-PIA and/or riboflavin in a final volume of 125 μL buffer at 30° C. for 60 min and then transferred to ice for 20 min. [^35 S]GTP-γy-S was added to a final concentration of 0.1 nM in a total volume of 500 μL and the mixture was incubated for 30 min at 30° C. Non-specific binding was determined in the presence of 10 μM GTP-γ-S (Sigma, St. Louis Mo.). Incubation of the reaction mixture was terminated by filtration over a GF/B glass filter using a Brandell cell harvester and washed with the same buffer.
The assay involved the agonist-induced inhibition of binding of guanine nucleotide to rat RBL-2H3 mast cell membranes, which contain a high density of A3 receptors.

[8] = rat striatal membranes, [3H]CGS 21680, Ki ± SEM, n = 3-6

| Structure (SMILES) | Ki [1, 8] | Ki [3] | Ki [4] | A1/A3 [5] | A2A/A3 [5] | further results |
| --- | --- | --- | --- | --- | --- | --- |
| CCNC(=O)[C@H]1O[C@@H](n2cnc3c(N(C(=O)Nc4ccc([N+](=O)[O-])cc4)C(=O)Nc4ccc([N+](=O)[O-])cc4)ncnc32)[C@H](O)[C@@H]1O [Compound 3n, N^6-bis-(4-nitrophenylcarbamoyl)-adenosine-5'-N-ethyluronamide] | 2530 ± 200 nM |  |  |  |  | Ki [2]: 89.1 ± 8.8 nM |
| CCNC(=O)[C@H]1O[C@@H](n2cnc3c(NC(=O)Nc4ccc(C(C)=O)cc4)ncnc32)[C@H](O)[C@@H]1O [Compound 3h, N^6-(4-acetyl-phenylcarbamoyl)-adenosine-5'-N-ethyluronamide] | 1050 ± 270 nM | 72.7 ± 11.8 nM | 20.9 ± 7.51 nM | 3.47 | 50.2 | Ki [5]: 9.7 to 107 nM; affinity and selectivity at A3 adenosine receptors [5]: relatively high affinity and selectivity at A3 adenosine receptors |
| CCNC(=O)[C@H]1O[C@@H](n2cnc3c(NC(=O)N[C@@H](C)c4ccccc4)ncnc32)[C@H](O)[C@@H]1O [Compound 3j, N^6-((S)-α-phenylethylcarbamoyl)-adenosine-5'-N-ethyluronamide] | 2970 ± 930 nM | 537 ± 33 nM | 319 ± 134 nM | 1.68 | 9.3 | affinity and selectivity at A3 adenosine receptors [5]: relatively high affinity and selectivity at A3 adenosine receptors |
| CCNC(=O)[C@H]1O[C@@H](n2cnc3c(NNC(=O)c4ccc(Cl)cc4)ncnc32)[C@H](O)[C@@H]1O [Compound 3d, N^6-(4-chlorophenyl-carbonylamino)-adenosine-5'-N-ethyluronamide] |  |  |  | 1.55 | 2.59 | Ki [1]: 1960 ± 300 nM; Ki [2]: 1170 ± 220 nM; Ki ([5]; read-out: Ki (A3)): 754 ± 132 nM |
| CCNC(=O)[C@H]1O[C@@H](n2cnc3c(NC(=O)NCc4ccccc4)ncnc32)[C@H](O)[C@@H]1O [Compound 3f, N^6-(benzylcarbamoylamino)-adenosine-5'-N-ethyluronamide] | 1790 ± 230 nM | 171 ± 15 nM | 38.3 ± 6.4 nM | 4.46 | 46.8 |  |
| CCCOc1ccc(NC(=O)Nc2ncnc3c2ncn3[C@@H]2O[C@H](C(=O)NCC)[C@@H](O)[C@H]2O)cc1 [Compound 3m, N^6-(4-n-propoxy-phenylcarbamoyl)-adenosine-5'-N-ethyluronamide] |  |  | 107 ± 34 nM | 2.3 | 2.4 | Ki [6]: 257 ± 43 nM; Ki [5]: 9.7 to 107 nM; affinity and selectivity at A3 adenosine receptors [5]: relatively high affinity and selectivity at A3 adenosine receptors |
| CCNC(=O)[C@H]1O[C@@H](n2cnc3c(NC(=O)Nc4cc(C)on4)ncnc32)[C@H](O)[C@@H]1O [Compound 3k, N^6-(5-methyl-isoxazol-3-yl-carbamoyl)-adenosine-5'-N-ethyluronamide] | 884 ± 232 nM | 146 ± 39 nM | 532 ± 240 nM | 0.27 | 1.66 |  |
| CCNC(=O)[C@H]1O[C@@H](n2cnc3c(NC(=O)c4ccccc4)ncnc32)[C@H](O)[C@@H]1O [Compound 3e] | 670 ± 211 nM | 252 ± 52 nM | 824 ± 126 nM | 0.30 | 0.81 |  |
| CNC(=O)[C@H]1O[C@@H](n2cnc3c(NCc4cccc(I)c4)ncnc32)[C@H](O)[C@@H]1O [IB-MECA, N^6-(3-iodobenzyl)adenosine-5'-N-methyluronamide] |  |  |  |  |  | behavioral effect (A3 receptor): induces behavioral depression; protection against cerebral ischemia (A3 receptor; chronic administration): protects against cerebral ischemia |
| CCNC(=O)[C@H]1O[C@@H](n2cnc3c(NC(=O)c4ccc(OC)cc4)ncnc32)[C@H](O)[C@@H]1O [Compound 3c] | 237 ± 46 nM | 86.4 ± 14.2 nM | 837 ± 142 nM | 0.10 | 0.28 |  |
| CCNC(=O)[C@H]1O[C@@H](n2cnc3c(NC(=O)c4ccc(-c5ccccc5)cc4)ncnc32)[C@H](O)[C@@H]1O [Compound 3a] | 3580 ± 850 nM | 5.92 ± 1.04 nM | 979 ± 22 nM | 0.006 | 3.65 |  |
| CCNC(=O)[C@H]1O[C@@H](n2cnc3c(NC(=O)Nc4nncs4)ncnc32)[C@H](O)[C@@H]1O [Compound 3l, N^6-(1,3,4-thiadiazol-2-yl-carbamoyl)-adenosine-5'-N-ethyluronamide] | 917 ± 254 nM | 208 ± 42 nM | 5550 ± 2800 nM | 0.037 | 0.16 |  |
| CCNC(=O)[C@H]1O[C@@H](n2cnc3c(NC(=O)Nc4ccc(S(N)(=O)=O)cc4)ncnc32)[C@H](O)[C@@H]1O [Compound 3g, N^6-(4-sulfonamido-phenylcarbamoyl)-adenosine-5'-N-ethyluronamide] | 1180 ± 360 nM | 453 ± 141 nM | 9.73 ± 0.75 nM | 46.5 | 121.2 | Ki [7]: 56.1 ± 9.1 nM; effect on binding of [35S]GTP-γ-S (rat A3 receptor): about as effective as the potent A3 agonists I-AB-MECA and Cl-IB-MECA; also recorded: greater potency than NECA; also recorded: increased binding of [^35 S]GTP-γ-S in a dose dependent manner; agonism at rat A3 receptor (rat A3 receptor; functional assay, rat RBL-2H3 mast cell membranes): full agonist; Ki [5]: 9.7 to 107 nM; Ki ([5]; read-out: affinity at A3 receptors, rat A3, running text): 9.7 nM |
| CCNC(=O)[C@H]1O[C@@H](n2cnc3c(NC(=O)N[C@H](C)c4ccccc4)ncnc32)[C@H](O)[C@@H]1O [Compound 3i, N^6-((R)-α-phenylethylcarbamoyl)-adenosine-5'-N-ethyluronamide] | 279 ± 171 nM | 433 ± 171 nM | 16.3 ± 3.7 nM | 26.5 | 17.1 |  |
| CCNC(=O)[C@H]1O[C@@H](n2cnc3c(NC(=O)Cc4ccc(Cl)cc4Cl)ncnc32)[C@H](O)[C@@H]1O [Compound 3b, N^6-(2,4-dichlorobenzyl-carbonylamino)-adenosine-5'-N-ethyluronamide] |  | 16 ± 3.3 nM | 167 ± 7 nM | 0.095 | 0.16 | Ki [1]: 26.6 ± 8.8 nM |
| CNC(=O)[C@H]1O[C@@H](n2cnc3c(NCc4ccc(N)c(I)c4)ncnc32)[C@H](O)[C@@H]1O [I-AB-MECA, N^6-(4-amino-3-iodobenzyl)adenosine-5'-N-methyluronamide, reference compound] |  |  |  |  |  | effect on binding of [35S]GTP-γ-S (rat A3 receptor): increased binding of [^35 S]GTP-γ-S in a dose dependent manner |
| CNC(=O)[C@H]1O[C@@H](n2cnc3c(NCc4cccc(I)c4)nc(Cl)nc32)[C@H](O)[C@@H]1O [Cl-IB-MECA, 2-chloro-N^6-(3-iodobenzyl)adenosine-5'-N-methyluronamide, reference compound] |  |  |  |  |  | effect on binding of [35S]GTP-γ-S (rat A3 receptor): increased binding of [^35 S]GTP-γ-S in a dose dependent manner |
| CCNC(=O)[C@H]1O[C@@H](n2cnc3c(N(C(=O)Nc4ccc(Cl)cn4)C(=O)Nc4ccc(Cl)cn4)ncnc32)[C@H](O)[C@@H]1O [Compound 3o, N^6-bis-(5-chloro-pyridin-2-yl-carbamoyl)-adenosine-5'-N-ethyluronamide] | 799 ± 191 nM | 761 ± 187 nM | 5700 ± 100 nM | 0.13 | 0.14 |  |
